This is an account of results in the NIST ThermoML archive (doi:10.1016/j.jct.2013.03.004).

The conditions of the series: 101 kPa, Liquid mixture 1, Drop volume.

± gives the expanded uncertainty stated by the source.

Turning to `Cc1ccccc1` [toluene] + O, the interfacial tension is on record as 37.2 ± 0.3 mN/m (293.2 K); 36.3 ± 0.3 mN/m (298.2 K); 35.7 ± 0.3 mN/m (303.2 K); 35.2 ± 0.3 mN/m (308.2 K); 34.7 ± 0.3 mN/m (313.2 K).
